This note sets out measurements from ChEMBL document CHEMBL5550220, “Discovering New Metallo-Deubiquitinase CSN5 Inhibitors by a Non-Catalytic Activity Assay Platform” (J Med Chem, 2024).

What is called IC50 is the point on the concentration scale where inhibition reaches its midpoint. What is called ΔTm is the shift of the melting midpoint relative to a reference.

The source made the active and inactive calls. The rule behind the calls is not given here.

Test [1] has as its target T1, COP9 signalosome complex subunit 5 (Homo sapiens, UniProt Q92905). As to the kind of experiment: Inhibition of N-terminal His6-tagged CSN5 (2 to 257 residues) (unknown origin) transfected in Transetta cells preincubated with N-(2-(3-(3',6'-dihydroxy-3-oxo-3H-spiro[isobenzofuran-1,9'-xanthen]-5-yl)thioureido)ethyl)-3-(2-(5-methyl-[1,1'-biphenyl]-2-yl)-1H-pyrrolo[2,3-b]pyridin-3-yl)propanamide probe followed by compound addition by fluorescence based microplate reader assay. Format: cell-based.
Target sequence in this assay (Q92905 2-334 limits assumed, one chain of several): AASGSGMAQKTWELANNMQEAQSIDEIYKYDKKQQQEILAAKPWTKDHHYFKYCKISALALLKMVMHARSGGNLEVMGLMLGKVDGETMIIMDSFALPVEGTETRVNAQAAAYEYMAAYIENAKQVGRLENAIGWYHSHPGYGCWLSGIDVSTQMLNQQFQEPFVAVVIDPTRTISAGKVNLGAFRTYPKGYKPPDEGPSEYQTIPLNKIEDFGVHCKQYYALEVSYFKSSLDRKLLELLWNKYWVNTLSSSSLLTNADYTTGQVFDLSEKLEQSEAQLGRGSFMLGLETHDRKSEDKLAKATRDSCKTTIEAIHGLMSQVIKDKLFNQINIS

In test [2] the test system is HCT-116. As to the kind of experiment: Antiproliferative activity against human HCT-116 cells assessed as inhibition of cell proliferation measured after 3 days by MTT assay. Format: functional, cell-based. The conditions noted are these: HCT-116, 72 h.
Test [3] relates to HepG2. In words: Antiproliferative activity against human HepG2 cells assessed as inhibition of cell proliferation measured after 3 days by MTT assay. In kind it is functional, cell-based. The conditions noted are these: HepG2, 72 h.
The test system of test [4] is HepG2. As to the kind of experiment: Effect on CSN5 protein level in human HepG2 cells at 3 uM by Western blot analysis. In kind it is functional, cell-based.
The target in test [5] is T1, COP9 signalosome complex subunit 5. In words: Inhibition of N-terminal His6-tagged CSN5 (2 to 257 residues) (unknown origin) transfected in Transetta cells preincubated for 20 mins followed by N-(2-(3-(3',6'-dihydroxy-3-oxo-3H-spiro[isobenzofuran-1,9'-xanthen]-5-yl)thioureido)ethyl)-3-(2-(5-methyl-[1,1'-biphenyl]-2-yl)-1H-pyrrolo[2,3-b]pyridin-3-yl)propanamide probe addition and measured after 1 hr by fluorescence polarization assay. A general note: In fluorescence polarisation assays a small probe gives low polarisation when free and higher when bound to something large.
Target sequence in this assay (Q92905 whole entry, the tested form may be a part, one chain of several): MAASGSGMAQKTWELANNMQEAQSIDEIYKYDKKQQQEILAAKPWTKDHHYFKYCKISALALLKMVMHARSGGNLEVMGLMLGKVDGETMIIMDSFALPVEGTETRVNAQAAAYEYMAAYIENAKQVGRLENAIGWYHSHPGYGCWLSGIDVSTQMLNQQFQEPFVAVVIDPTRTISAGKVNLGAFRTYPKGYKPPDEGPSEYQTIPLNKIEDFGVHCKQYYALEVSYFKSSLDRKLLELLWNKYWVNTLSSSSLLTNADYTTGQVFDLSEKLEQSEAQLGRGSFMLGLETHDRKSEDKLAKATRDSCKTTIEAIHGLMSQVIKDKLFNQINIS

Test [6] shares this target. As to the kind of experiment: Inhibition of CSN5 in human HepG2 cells assessed as increase in neddylation of cullin1 by Western blot analysis. Format: cell-based. The conditions noted are these: dose 0.3-3 µM. Background: In western blotting, separated proteins are transferred to a membrane and probed.
Target sequence in this assay (Q92905 2-334 limits assumed, one chain of several): as the sequence (Q92905 2-334 limits assumed, one chain of several) above
Test [7] deals with HepG2. As to the kind of experiment: Effect on PD-L1 level in human HepG2 cells at 0.3 to 3 uM by Western blot analysis. In kind it is functional, cell-based. The note with it: dose 0.3-3 µM.
Test [8] relates to A-375. In words: Antiproliferative activity against human A-375 cells assessed as inhibition of cell proliferation measured after 3 days by MTT assay. In kind it is functional, cell-based. The note with it: A-375, 72 h. On the technique in general: Formazan colour is commonly taken as a measure of viable cells.
The target of test [9] is T1, COP9 signalosome complex subunit 5. In words: Inhibition of N-terminal His6-tagged CSN5 (2 to 257 residues) (unknown origin) transfected in Transetta cells preincubated for 20 mins followed by N-(2-(3-(3',6'-dihydroxy-3-oxo-3H-spiro[isobenzofuran-1,9'-xanthen]-5-yl)thioureido)ethyl)-3-(2-(5-methyl-[1,1'-biphenyl]-2-yl)-1H-pyrrolo[2,3-b]pyridin-3-yl)propanamide probe addition and measured after 1 hr by fluorescence based microplate reader assay. In kind it is cell-based.
Target sequence in this assay (Q92905 whole entry, the tested form may be a part, one chain of several): as the sequence (Q92905 whole entry, the tested form may be a part, one chain of several) above

The target is the same in test [10]. As to the kind of experiment: Inhibition of CSN5 in human HepG2 cells assessed as increase in neddylation of cullin1 at 3 uM by Western blot analysis. Format: cell-based.
Target sequence in this assay (Q92905 2-334 limits assumed, one chain of several): as the sequence (Q92905 2-334 limits assumed, one chain of several) above
Test [11] shares this target. As to the kind of experiment: Inhibition of CSN5 in human HCT-116 cells assessed as increase in neddylation of cullin1 at 3 uM by Western blot analysis. Format: cell-based.
Target sequence in this assay (Q92905 2-334 limits assumed, one chain of several): as above
Test [12] shares this target. As to the kind of experiment: Binding affinity to N-terminal His6-tagged Zn-II deficient CSN5 (2 to 257 residues) (unknown origin) transfected in Transetta cells assessed as tryptophan fluorescence change at 0 to 100 uM incubated for 10 mins by fluorescence quenching based microplate reader analysis. Format: cell-based. The conditions noted are these: dose 0-100 µM.
Target sequence in this assay (Q92905 2-334 limits assumed, one chain of several): as above

Test [13] relates to HCT-116. In words: Upregulation of PD-L1 level in human HCT-116 cells at 3 uM by Western blot analysis. Format: functional, cell-based.
Test [14] has as its system HCT-116. In words: Effect on CSN5 protein level in human HCT-116 cells at 3 uM by Western blot analysis. In kind it is functional, cell-based.
For test [15], the target named is T1, COP9 signalosome complex subunit 5. The conditions noted are these: dose 50.0 µM.
Target sequence in this assay (Q92905 2-334 limits assumed, one chain of several): as above
Description: Thermal stabilization of N-terminal His6-tagged CSN5 (2 to 257 residues) (unknown origin) transfected in Transetta cells assessed as change in melting temperature at 50 uM by SYPRO orange dye based thermal shift assay
Test [16] has the same target. In words: Binding affinity to N-terminal His6-tagged CSN5 (2 to 257 residues) (unknown origin) transfected in Transetta cells assessed as decrease in tryptophan fluorescence intensity incubated for 10 mins by fluorescence quenching based microplate reader analysis. In kind it is cell-based. The note with it: dose 0-100 µM.
The subject of test [17] is HCT-116. In words: Upregulation of PD-L1 protein expression in human HCT-116 cells at 30 uM by Western blot analysis. In kind it is functional, cell-based.
Test [18] relates to HCT-116. As to the kind of experiment: Upregulation of PD-L1 level in human HCT-116 cells at 30 uM by Western blot analysis. In kind it is functional, cell-based.
Test [19] relates to MDA-MB-231. As to the kind of experiment: Antiproliferative activity against human MDA-MB-231 cells assessed as inhibition of cell proliferation measured after 3 days by MTT assay. In kind it is functional, cell-based. The note with it: MDA-MB-231, 72 h.
Test [20] has as its target T1, COP9 signalosome complex subunit 5. As to the kind of experiment: Inhibition of CSN5 in human HCT-116 cells assessed as increase in NEDD8-Cul1 level by Western blot analysis. The note with it: dose 3-30 µM. Format: cell-based.
For test [21] the target is unchanged. In words: Inhibition of CSN5 in human MDA-MB-231 cells assessed as increase in NEDD8-Cul1 level by Western blot analysis. In kind it is cell-based. The note with it: dose 3-30 µM.
Test [22] relates to MDA-MB-231. As to the kind of experiment: Downregulation of PD-L1 protein expression in human MDA-MB-231 cells at 3 to 30 uM by Western blot analysis. In kind it is functional, cell-based. The conditions noted are these: dose 3-30 µM.
Test [23] concerns HCT-116. In words: Downregulation of PD-L1 protein expression in human HCT-116 cells at 30 uM by Western blot analysis. In kind it is functional, cell-based.

On to `CC(C)=CC[C@@H](O)C1=CC(=O)c2c(O)ccc(O)c2C1=O` [SHIKONIN], for which the inhibition result in test [1], in test [10] and in test [11] was “Active” each time. In addition, the half-maximal inhibitory concentration (IC50) in test [2] was determined as 0.52 µM; in test [3], 2.96 µM; in test [5], 0.19 µM; in [8], 0.7 µM; in test [9], 0.41 µM. For the same compound, the result in [4], in [7], in test [12] and in test [14] was inactive. Besides, the inhibition result in [6] was “Dose-Dependent Effect”. Also, in test [13], the result was Active. Besides, the ΔTm in [15] worked out at 1 °C. In addition, the Activity entry in [16] is “Dose-Dependent Effect”.

In the case of `Cc1ccc(-c2[nH]c3ncccc3c2CCC(=O)N2CCOC[C@H]2c2nc3ccccc3[nH]2)c(-c2ccccc2)c1`, the outcome in test [17] and in test [18] was Active.

As for `CC(C)c1ccc(Cc2sc(N)nc2C(=O)O)cc1`, the figures for the IC50 in test [5] and in [9] were 111 µM and 80.1 µM, respectively.

Turning to `O=C1C=CC(=O)c2c(O)ccc(O)c21` [NAPHTHAZALIN], the IC50 in [2] is 1.04 µM; in test [3], 4.97 µM; in test [5], 0.17 µM; in test [8], 8.85 µM; in [9] it was 0.91 µM.

As to `CC(C)(C)c1ccc(CCc2sc(N)nc2C(=O)O)cc1`, the half-maximal inhibitory concentration (IC50) in [2] was 52 µM; in [3], greater than 100 µM; in test [5] it was 19.1 µM; in test [9], 29.8 µM; in [19] it was 52.5 µM.

`Nc1nc(C(=O)O)c(CCc2cccc3ccccc23)s1`: the half-maximal inhibitory concentration (IC50) in [2] was 17.7 µM; in [3] it was 30.8 µM; in [5], 30.3 µM; in test [9] it was 28.3 µM; in test [19] it was 22.4 µM.

Consider `CC(C)=CC[C@H](O)C1=CC(=O)c2c(O)ccc(O)c2C1=O` [ALKANNIN], for which the IC50 in [2] was found to be 0.83 µM; in test [3], 4.86 µM; in [5], 0.27 µM; in test [8], 1.42 µM; in test [9], 0.8 µM. Moreover, in [15], the thermal shift (ΔTm) came out at 1 °C.

Turning to `CCCCc1sc(N)nc1C(=O)O`, the IC50 in [5] and in test [9] was greater than 300 µM each time.

Consider `CC(=O)O[C@H](CC=C(C)C)C1=CC(=O)c2c(O)ccc(O)c2C1=O` [ACETYLSHIKONIN], for which the IC50 in test [2] was found to be 3.56 µM; in test [3], 6.48 µM; in test [5] it was 0.43 µM; in test [8] it was 1.91 µM; in test [9] it was 1.07 µM.

With `CC(C)=CCCC1=CC(=O)c2c(O)ccc(O)c2C1=O` [DEOXYSHIKONIN], the IC50 in test [2] was found to be 15.5 µM; in test [3], 10.5 µM; in [5], 2.51 µM; in test [8], 6.83 µM; in test [9] it was 4.81 µM. Moreover, the outcome in test [4], in [13] and in [14] was inactive. In addition, the inhibition result in test [10] and in test [11] was “Active” each time. Moreover, the Activity entry in test [16] was “Dose-Dependent Effect”.

Regarding `CC(C)Cc1sc(N)nc1C(=O)O`, the 50% inhibitory concentration (IC50) in test [5] and in [9] was greater than 300 µM each time.

On to `Nc1nc(C(=O)O)c(CCc2ccc(Cl)cc2Cl)s1`, for which the concentration for half-maximal inhibition (IC50) is 56.5 µM in test [2]; greater than 100 µM in test [3]; 41.7 µM in test [5]; 41.7 µM in test [9]; greater than 100 µM in test [19].

On to `Nc1nc(C(=O)O)c(CCc2ccc(Br)cc2)s1`, for which the half-inhibitory concentration (IC50) in test [2] is 55.6 µM; in [3], greater than 100 µM; in [5], 65.5 µM; in test [9], 64.6 µM; in [19], 34.1 µM.

Consider `CC(C)(C)c1ccc(Cc2sc(N)nc2C(=O)O)cc1`, for which the IC50 came to 92.1 µM in [5] and 83.2 µM in test [9].

For `Cc1ccc(CCc2sc(N)nc2C(=O)O)o1`, the IC50 in test [5] worked out at 188 µM; in test [9] it was 163 µM.

As for `CC(Cc1ccc(C(C)(C)C)cc1)c1sc(N)nc1C(=O)O` (stereo unspecified), the inhibition result in test [1] is “Active”. The concentration for half-maximal inhibition (IC50) in [2] was 24.1 µM; in test [3], 39.1 µM; in [5] it was 12.6 µM; in [9], 19 µM; in test [19], 22.8 µM. Moreover, the inhibition entry in test [20] and in test [21] was “Dose-Dependent Effect” in each case. Further, the Activity result in test [16] was “Dose-Dependent Effect”.

Take `CC(C)c1ccc(CC(C)c2sc(N)nc2C(=O)O)cc1` (stereo unspecified): the half-maximal inhibitory concentration (IC50) amounted to 16.3 µM in test [2]; 37.3 µM in [3]; 13.5 µM in test [5]; 14.9 µM in [9]; 14 µM in [19]. Further, the Activity entry in [16] was “Dose-Dependent Effect”.

`CC(C)=CC[C@@H](OC(=O)C(C)C)C1=CC(=O)c2c(O)ccc(O)c2C1=O` [ISOBUTYLSHIKONIN]: the IC50 in test [2] turned out to be 1.73 µM; in test [3] it was 8.73 µM; in test [5], 0.6 µM; in test [8], 1.71 µM; in [9], 1.17 µM.

Turning to `COc1ccc2cc([C@@H](C)c3sc(N)nc3C(=O)O)ccc2c1`, the inhibition result in [1] is “Active”. Besides, the 50% inhibitory concentration (IC50) was 40.9 µM in test [2]; 52.1 µM in test [3]; 26.9 µM in test [5]; 16.8 µM in [9]; 68.3 µM in test [19]. Also, the outcome in test [22] and in test [23] was Active. Also, the inhibition entry in test [20] and in test [21] was “Dose-Dependent Effect” each time. The Activity result in test [16] was “Dose-Dependent Effect”.
